The values below come from BindingDB's records for doi:10.7270/Q2QJ7FRJ (Nmmlsc, 2009).

The first assay deals with Cell division control protein 42 homolog (Homo sapiens, UniProt P60953). Briefly: wildtype Cdc42 GTP-binding inhibitors, SAR follow-up, biochemical, pyrazoline analogs, multiplex bead flow cytometry, Ki (AID 2019).
Sequence of Cell division control protein 42 homolog (P60953 whole entry): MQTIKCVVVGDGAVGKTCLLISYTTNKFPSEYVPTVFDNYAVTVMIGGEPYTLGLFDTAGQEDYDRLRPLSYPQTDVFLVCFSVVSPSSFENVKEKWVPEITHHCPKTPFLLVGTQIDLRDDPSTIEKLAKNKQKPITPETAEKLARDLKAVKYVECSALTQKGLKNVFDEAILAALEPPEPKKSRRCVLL
Details: not given
Take `COc1ccc(C2CC(c3cccc(Br)c3)=NN2c2ccc(S(N)(=O)=O)cc2)cc1` (centres undefined) [UNM-0000306113]: the midpoint of the response, the EC50, lay at 2.07 µM.
Same read-out and setting: next, `COc1ccc(C2CC(c3ccc(F)cc3)=NN2c2cccc(F)c2)cc1OC` (centres undefined): 21 µM; `NS(=O)(=O)c1ccc(N2N=C(c3ccc(Cl)cc3)CC2c2ccccc2)cc1` (centres undefined): 3.32 µM.
`COc1ccc(C2CC(c3ccc(C)cc3)=NN2c2ccc(S(N)(=O)=O)cc2)cc1` (centres undefined) came in with an EC50 of 2.21 µM.
On the same count and under the same terms, to `COc1ccc(C2CC(c3cccc(C(F)(F)F)c3)=NN2c2ccc(S(N)(=O)=O)cc2)cc1` (centres undefined) belongs 3.11 µM; to `COc1ccc(C2CC(c3cccc(C)c3)=NN2c2ccc(S(N)(=O)=O)cc2)cc1` (centres undefined) [UNM-0000306153], 3.77 µM.
Still for that read-out and setting: to `COc1ccc(C2CC(c3cccc(Cl)c3)=NN2c2ccc(S(N)(=O)=O)cc2)cc1` (centres undefined) [UNM-0000306134] belongs 1.3 µM; to `COc1ccc(C2CC(c3cccc(OC)c3)=NN2c2ccc(S(N)(=O)=O)cc2)cc1` (centres undefined) [4-[5-(3-methoxyphenyl)-3-(4-methoxyphenyl)-3,4-dihydropyrazol-2-yl]benzenesulfonamide], 1.46 µM.
On the same count and under the same terms, to `NS(=O)(=O)c1ccc(N2N=C(c3ccccc3)CC2c2ccc(Br)cc2)cc1` (centres undefined) [UNM-0000306160] belongs 1.07 µM.
With `COc1ccc(C2CC(c3ccccc3Cl)=NN2c2ccc(S(N)(=O)=O)cc2)cc1` (centres undefined) [4-[5-(2-chlorophenyl)-3-(4-methoxyphenyl)-3,4-dihydropyrazol-2-yl]benzenesulfonamide], a half-maximal response (EC50) required 2.59 µM.
In turn, `COc1ccc(C2CC(c3ccc(Br)cc3)=NN2c2ccc(S(N)(=O)=O)cc2)cc1` (centres undefined) [UNM-0000306138] displayed an EC50 of 2.99 µM.
`COc1ccc(C2CC(c3ccc(Cl)cc3)=NN2c2ccc(S(N)(=O)=O)cc2)cc1` (centres undefined) yielded an EC50 of 2.3 µM.
Still for that read-out and setting: to `COc1ccc(C2CC(c3ccccc3F)=NN2c2ccc(S(N)(=O)=O)cc2)cc1` (centres undefined) [UNM-0000306110] belongs 2.79 µM.
Still for that read-out and setting: to `NS(=O)(=O)c1ccc(N2N=C(c3ccccc3)CC2c2ccc(Cl)cc2)cc1` (centres undefined) [4-[3-(4-chlorophenyl)-5-phenyl-3,4-dihydropyrazol-2-yl]benzenesulfonamide] belongs 2.76 µM; to `COc1ccc(C2CC(c3cccc(F)c3)=NN2c2ccc(S(N)(=O)=O)cc2)cc1` (centres undefined) [4-[5-(3-fluorophenyl)-3-(4-methoxyphenyl)-3,4-dihydropyrazol-2-yl]benzenesulfonamide], 2.86 µM; to `O=S(=O)(O)c1ccc(N2N=C(c3ccccc3)CC2c2ccccc2)cc1` (centres undefined) [UNM-0000305834], 30 µM.

Still in this assay, the particulars now being: inactive by the depositor's call.
The molecule `COc1ccc(C2=NN(c3ccccc3)C(c3ccc(Cl)cc3)C2)cc1` (centres undefined) [UNM-0000305833] displayed an EC50 of 30 µM.
On the same count and under the same terms, next, `COc1ccc(C2CC(C3CCCCC3)=NN2c2ccc(S(N)(=O)=O)cc2)cc1` (centres undefined) [4-[5-cyclohexyl-3-(4-methoxyphenyl)-3,4-dihydropyrazol-2-yl]benzenesulfonamide]: 30 µM; `COc1ccc(C2CC(C)=NN2c2ccc(S(N)(=O)=O)cc2)cc1` (centres undefined) [4-[3-(4-methoxyphenyl)-5-methyl-3,4-dihydropyrazol-2-yl]benzenesulfonamide]: 30 µM.
Still for that read-out and setting: next, `COc1ccc(C2=NN(c3ccc(Cl)cc3)C(c3ccccc3F)C2)cc1` (centres undefined) [UNM-0000305863]: 30 µM.
Same read-out and setting: next, `O=C(O)c1ccc(N2N=C(c3ccccc3)CC2c2ccccc2)cc1` (centres undefined): 30 µM; `COc1ccc(C2=NN(c3ccc(Cl)c(Cl)c3)C(c3ccc(OC)cc3)C2)cc1` (centres undefined) [2-(3,4-dichlorophenyl)-3,5-bis(4-methoxyphenyl)-3,4-dihydropyrazole]: 30 µM.
`COc1ccc(C2=NN(c3ccccc3F)C(c3ccc(F)cc3)C2)cc1` (centres undefined) [UNM-0000305860] registered an EC50 of 30 µM.
As for `NS(=O)(=O)c1ccc(N2N=C(c3ccccc3)CC2c2ccccc2Br)cc1` (centres undefined) [4-[3-(2-bromophenyl)-5-phenyl-3,4-dihydropyrazol-2-yl]benzenesulfonamide], the half-maximal effective concentration (EC50) came to 30 µM.
On the same count and under the same terms, to `COc1ccc(C2CC(c3cccc(N(C)C)c3)=NN2c2ccc(S(N)(=O)=O)cc2)cc1` (centres undefined) belongs 30 µM; to `O=[N+]([O-])c1ccc([N+]2=N[C-](c3ccccc3)CC2c2ccc(O)cc2)cc1` (centres undefined) [UNM-0000305838], 30 µM; to `Brc1ccc(N2N=C(c3ccccc3)CC2c2ccccc2)cc1` (centres undefined), 30 µM.
Still for that read-out and setting: next, `COc1ccc(C2CC(c3ccccc3)=NN2c2cccc(S(N)(=O)=O)c2)cc1` (centres undefined) [3-[3-(4-methoxyphenyl)-5-phenyl-3,4-dihydropyrazol-2-yl]benzenesulfonamide]: 30 µM; `COc1ccc(C2=NN(c3cccc(F)c3)C(c3ccc(OC)cc3)C2)cc1` (centres undefined) [2-(3-fluorophenyl)-3,5-bis(4-methoxyphenyl)-3,4-dihydropyrazole]: 30 µM; `COc1ccc(C2C[C-](c3ccccc3)N=[N+]2c2ccc([N+](=O)[O-])cc2)cc1` (centres undefined) [3-(4-methoxyphenyl)-2-(4-nitrophenyl)-5-phenyl-3,4-dihydropyrazole]: 30 µM.
Same read-out and setting: to `COc1ccc(C2CC(c3ccccc3C(F)(F)F)=NN2c2ccc(S(N)(=O)=O)cc2)cc1` (centres undefined) [KUC103474N] belongs 30 µM; to `COc1ccc(C2CC(c3ccc(N(C)C)cc3)=NN2c2ccc(S(N)(=O)=O)cc2)cc1` (centres undefined) [KUC103422N], 3.37 µM; to `O=[N+]([O-])c1ccc([N+]2=N[C-](c3ccccc3)CC2c2ccccc2)cc1` (centres undefined), 30 µM.
On to `CC(=O)Oc1ccc(C2=NN(c3ccccc3)C(c3ccccc3)C2)cc1` (centres undefined), for which the EC50 stood at 30 µM.
Still for that read-out and setting: next, `NS(=O)(=O)c1ccc(N2N=C(c3ccccc3)CC2c2ccccc2)cc1` (centres undefined) [4-(3,5-diphenyl-3,4-dihydropyrazol-2-yl)benzenesulfonamide]: 30 µM; `CCc1ccc(C2=NN(c3ccc(S(N)(=O)=O)cc3)C(c3ccc(F)cc3)C2)cc1` (centres undefined): 30 µM; `Fc1ccc(C2=NN(c3cccc(Br)c3)C(c3ccccc3)C2)cc1` (centres undefined) [2-(3-bromophenyl)-5-(4-fluorophenyl)-3-phenyl-3,4-dihydropyrazole]: 30 µM.
The molecule `CN(C)c1ccc(C2CC(c3ccc(Br)cc3)=NN2c2ccccc2)cc1` (centres undefined) [UNM-0000305846] yielded an EC50 of 30 µM.
Same read-out and setting: to `COc1ccc(C2CC(c3ccccc3)=NN2c2ccc(C(N)=O)cc2)cc1` (centres undefined) [UNM-0000305870] belongs 30 µM.
Same read-out and setting: to `Cc1cccc(N2N=C(c3ccccc3)CC2c2ccccc2)c1` (centres undefined) [UNM-0000305835] belongs 30 µM; to `COc1ccccc1N1N=C(c2ccccc2)CC1c1ccccc1` (centres undefined) [UNM-0000305855], 30 µM; to `CN(C)c1ccc(C2CC(c3ccccc3)=NN2c2ccccc2)cc1` (centres undefined) [4-(2,5-diphenyl-3,4-dihydropyrazol-3-yl)-N,N-dimethylaniline], 30 µM.
Still for that read-out and setting: next, `COc1ccc(C2CC(c3ccc(Br)cc3)=NN2c2ccccc2Cl)cc1` (centres undefined) [UNM-0000305832]: 30 µM; `FC(F)(F)c1ccccc1C1CC(c2ccc(Br)cc2)=NN1c1ccccc1` (centres undefined) [5-(4-bromophenyl)-2-phenyl-3-[2-(trifluoromethyl)phenyl]-3,4-dihydropyrazole]: 30 µM.
The molecule `Cc1ccccc1N1N=C(c2ccccc2)CC1c1ccc(N(C)C)cc1` (centres undefined) [N,N-dimethyl-4-[2-(2-methylphenyl)-5-phenyl-3,4-dihydropyrazol-3-yl]aniline] yielded an EC50 of 30 µM.
Same read-out and setting: next, `COc1ccc(C2CC(c3ccc(F)cc3)=NN2c2ccccc2)cc1OC` (centres undefined) [UNM-0000305864]: 30 µM.
The molecule `COc1ccc(C2CC(c3ccccc3C)=NN2c2ccc(S(N)(=O)=O)cc2)cc1` (centres undefined) [UNM-0000306152] had an EC50 of 4.13 µM.
The same measure, in the same setting: to `CN(C)c1ccc(C2CC(c3ccc(Cl)cc3)=NN2c2ccccc2)cc1` (centres undefined) [UNM-0000305847] belongs 30 µM.
Molecule `COc1ccc(C2CC(c3ccncc3)=NN2c2ccc(S(N)(=O)=O)cc2)cc1` (centres undefined) had an EC50 of 30 µM.
On to `COc1ccc(C2CC(c3ccc(Cl)cc3)=NN2c2ccccc2)cc1OC` (centres undefined) [UNM-0000305858], for which the EC50 is 30 µM.
The same measure, in the same setting: next, `COc1ccc(C2CC(c3ccccc3)=NN2c2ccc(Cl)c(C(=O)O)c2)cc1` (centres undefined): 30 µM; `NS(=O)(=O)c1ccc(N2N=C(c3ccc(Br)cc3)CC2c2ccc(F)cc2)cc1` (centres undefined) [4-[5-(4-bromophenyl)-3-(4-fluorophenyl)-3,4-dihydropyrazol-2-yl]benzenesulfonamide]: 30 µM; `COc1ccc(C2CC(C(C)(C)C)=NN2c2ccc(S(N)(=O)=O)cc2)cc1` (centres undefined) [KUC103450N]: 30 µM.
Same read-out and setting: next, `COc1ccc(C2=NN(c3cccc(F)c3)C(c3ccc(Cl)cc3)C2)cc1` (centres undefined) [3-(4-chlorophenyl)-2-(3-fluorophenyl)-5-(4-methoxyphenyl)-3,4-dihydropyrazole]: 30 µM; `Cc1ccccc1[N+]1=N[C-](c2ccccc2)CC1c1cccc([N+](=O)[O-])c1` (centres undefined) [UNM-0000305854]: 30 µM.
On the same count and under the same terms, next, `CN(C)c1ccc(C2C[C-](c3ccccc3)N=[N+]2c2ccc([N+](=O)[O-])cc2)cc1` (centres undefined): 30 µM; `COc1ccc(C2CC(c3ccccc3)=NN2c2ccc(C(=O)O)cc2)cc1` (centres undefined) [UNM-0000306085]: 30 µM; `FC(F)(F)c1cccc(N2N=C(c3ccc(Cl)cc3)CC2c2ccccc2Cl)c1` (centres undefined) [UNM-0000305859]: 30 µM.
`O=S(=O)(c1ccc(N2N=C(c3ccccc3)CC2c2ccccc2)cc1)C(F)F` (centres undefined) displayed an EC50 of 0.231 µM.
Still for that read-out and setting: to `Clc1ccc(N2N=C(c3ccccc3)CC2c2ccccc2)cc1` (centres undefined) belongs 30 µM.
On the same count and under the same terms, to `COc1ccc(C2=NN(c3ccccc3)C(c3ccc(OC)c(OC)c3C(=O)O)C2)cc1` (centres undefined) [UNM-0000305848] belongs 30 µM; to `COc1ccc(C2CC(c3ccccc3)=NN2c2ccc(Cl)c(C(=O)O)c2)cc1OC` (centres undefined) [2-chloro-5-[3-(3,4-dimethoxyphenyl)-5-phenyl-3,4-dihydropyrazol-2-yl]benzoic acid], 30 µM; to `O=[N+]([O-])c1cccc(C2C[C-](c3ccc(F)cc3)N=[N+]2c2ccccc2)c1` (centres undefined) [5-(4-fluorophenyl)-3-(3-nitrophenyl)-2-phenyl-3,4-dihydropyrazole], 30 µM.
`Fc1ccccc1C1CC(c2ccc(Br)cc2)=NN1c1ccc(Br)cc1` (centres undefined) [2,5-bis(4-bromophenyl)-3-(2-fluorophenyl)-3,4-dihydropyrazole] gave an EC50 of 30 µM.
